Experimental findings from ChEMBL document CHEMBL5653631, “A Potent and Selective ULK1 Inhibitor Suppresses Autophagy and Sensitizes Cancer Cells to Nutrient Stress” (iScience, 2018) are described below.

Assay [1] concerns the target T1, Serine/threonine-protein kinase TAO1 (Homo sapiens) (UniProt Q7L7X3).
T1 sequence (whole entry): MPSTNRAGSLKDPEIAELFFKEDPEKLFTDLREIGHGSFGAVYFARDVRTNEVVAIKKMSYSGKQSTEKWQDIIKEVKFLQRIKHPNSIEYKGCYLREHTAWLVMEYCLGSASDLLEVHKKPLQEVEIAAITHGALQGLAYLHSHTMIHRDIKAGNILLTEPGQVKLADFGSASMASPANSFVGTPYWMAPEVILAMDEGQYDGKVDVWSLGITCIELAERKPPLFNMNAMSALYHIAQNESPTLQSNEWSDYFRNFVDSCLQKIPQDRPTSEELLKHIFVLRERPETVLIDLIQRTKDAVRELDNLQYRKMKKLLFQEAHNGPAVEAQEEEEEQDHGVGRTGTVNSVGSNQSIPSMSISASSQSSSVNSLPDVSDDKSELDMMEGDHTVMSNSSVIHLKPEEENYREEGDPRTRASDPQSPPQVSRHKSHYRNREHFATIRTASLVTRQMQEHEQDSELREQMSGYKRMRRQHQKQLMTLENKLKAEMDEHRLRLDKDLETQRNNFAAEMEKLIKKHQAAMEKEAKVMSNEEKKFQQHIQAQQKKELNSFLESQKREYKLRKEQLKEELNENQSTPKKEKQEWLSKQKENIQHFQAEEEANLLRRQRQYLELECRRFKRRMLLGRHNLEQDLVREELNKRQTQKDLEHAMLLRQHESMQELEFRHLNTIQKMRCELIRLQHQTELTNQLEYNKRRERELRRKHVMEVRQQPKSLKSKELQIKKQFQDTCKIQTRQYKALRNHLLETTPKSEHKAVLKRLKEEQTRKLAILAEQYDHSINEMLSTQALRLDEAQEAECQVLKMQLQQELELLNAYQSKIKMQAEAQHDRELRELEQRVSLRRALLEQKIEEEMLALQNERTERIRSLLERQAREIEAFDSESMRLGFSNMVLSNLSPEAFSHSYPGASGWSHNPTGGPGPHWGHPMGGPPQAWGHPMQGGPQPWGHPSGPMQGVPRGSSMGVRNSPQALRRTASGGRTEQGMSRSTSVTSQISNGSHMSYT
As to the kind of experiment: Inhibition of human recombinant TAO1 at 40 nM related to control ULK1.

In assay [2] the target is T2, Serine/threonine-protein kinase Nek1 (Homo sapiens) (UniProt Q96PY6).
T2 sequence (whole entry): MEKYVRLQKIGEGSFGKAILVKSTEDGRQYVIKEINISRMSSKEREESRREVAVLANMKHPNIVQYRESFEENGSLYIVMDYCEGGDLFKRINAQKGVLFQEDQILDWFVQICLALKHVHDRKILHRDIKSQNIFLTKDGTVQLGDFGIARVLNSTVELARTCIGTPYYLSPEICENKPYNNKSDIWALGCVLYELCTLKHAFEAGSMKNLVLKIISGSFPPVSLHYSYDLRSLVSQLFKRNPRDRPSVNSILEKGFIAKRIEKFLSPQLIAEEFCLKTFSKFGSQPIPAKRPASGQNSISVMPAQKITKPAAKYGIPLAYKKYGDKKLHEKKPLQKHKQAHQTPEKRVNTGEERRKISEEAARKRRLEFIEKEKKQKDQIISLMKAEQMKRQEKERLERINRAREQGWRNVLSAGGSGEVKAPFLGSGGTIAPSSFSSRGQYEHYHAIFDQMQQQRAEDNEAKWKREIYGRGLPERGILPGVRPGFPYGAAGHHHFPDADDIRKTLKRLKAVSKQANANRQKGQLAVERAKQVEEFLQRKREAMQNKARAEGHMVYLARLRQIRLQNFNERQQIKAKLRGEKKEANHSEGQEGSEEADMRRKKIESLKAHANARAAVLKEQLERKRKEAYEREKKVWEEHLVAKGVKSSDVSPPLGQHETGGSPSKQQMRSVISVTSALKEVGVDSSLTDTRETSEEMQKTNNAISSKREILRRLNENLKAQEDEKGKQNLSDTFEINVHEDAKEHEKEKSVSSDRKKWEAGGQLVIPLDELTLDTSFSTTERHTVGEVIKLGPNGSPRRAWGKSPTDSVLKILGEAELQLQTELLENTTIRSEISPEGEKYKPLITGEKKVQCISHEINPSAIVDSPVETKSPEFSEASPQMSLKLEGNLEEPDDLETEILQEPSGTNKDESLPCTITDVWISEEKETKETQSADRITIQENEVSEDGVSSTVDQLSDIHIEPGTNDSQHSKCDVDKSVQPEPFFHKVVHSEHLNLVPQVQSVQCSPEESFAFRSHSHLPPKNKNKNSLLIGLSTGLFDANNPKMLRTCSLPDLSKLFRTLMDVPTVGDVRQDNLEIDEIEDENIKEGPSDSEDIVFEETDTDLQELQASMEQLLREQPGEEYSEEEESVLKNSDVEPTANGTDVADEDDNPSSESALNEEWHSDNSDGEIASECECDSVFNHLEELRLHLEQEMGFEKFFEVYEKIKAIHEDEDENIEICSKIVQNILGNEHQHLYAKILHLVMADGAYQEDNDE
As to the kind of experiment: Inhibition of human recombinant NEK1 at 500 nM in presence of ATP by radiometric assay relative to control.

Assay [3] concerns the target Serine/threonine-protein kinase SBK1 (Homo sapiens) (UniProt Q52WX2). As to the kind of experiment: Inhibition of human recombinant SBK1 at 500 nM in presence of ATP by radiometric assay relative to control.

SMILES strings stand for the structures.

Chain of Serine/threonine-protein kinase SBK1 (Homo sapiens) (Q52WX2 whole entry): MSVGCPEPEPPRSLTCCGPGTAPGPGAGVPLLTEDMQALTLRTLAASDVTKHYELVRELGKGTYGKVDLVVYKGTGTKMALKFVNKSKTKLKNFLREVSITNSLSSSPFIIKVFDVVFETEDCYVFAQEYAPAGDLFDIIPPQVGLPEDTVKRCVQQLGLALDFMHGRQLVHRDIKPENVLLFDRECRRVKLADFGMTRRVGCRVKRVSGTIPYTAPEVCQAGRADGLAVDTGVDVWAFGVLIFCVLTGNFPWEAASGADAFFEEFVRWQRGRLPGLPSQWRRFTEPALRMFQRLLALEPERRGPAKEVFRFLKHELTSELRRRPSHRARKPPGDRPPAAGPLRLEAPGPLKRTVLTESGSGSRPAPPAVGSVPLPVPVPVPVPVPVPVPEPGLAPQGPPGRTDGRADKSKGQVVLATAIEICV

As to `O=C(N[C@@H](C1CC1)C(F)(F)F)c1cc(-c2cnn3cc(-c4ccc(F)cc4)cnc23)cs1`, the fold change (FC) in assay [1] came to 0. In the case of `CNC(=O)c1ccccc1Oc1nc(Nc2cc(OC)c(OC)c(OC)c2)ncc1Br`, the values for the inhibition in assay [2] and in assay [3] were 8% and 50%, respectively.

A word on the inhibition: it is the share of the control response that was lost under treatment.
